Measured values as given in article PMC10580383, “Development of Melanocortin 4 Receptor Agonists by Exploiting Animal-Derived Macrocyclic, Disulfide-Rich Peptide Scaffolds” (ACS Pharmacology & Translational Science, 2023).
Where a SMILES comes first, the peptide text is derived from it. Bridges are numbered along the chain shown (N, C = ends). [ ]: non-standard residue; d: D form.

Assays:
Test in all cases: pGlo cAMP accumulation assay
Assay type in all cases: cell-based
[1] = tested on: human MC1R; settings: cells transiently expressing human MC1R, up to 10 μM, three independent experiments in technical triplicate
Experimental: (§1) Following functional analysis at MC4R, we were intrigued to know how selective Pr4LP1 and Ar3LP1 were for MC4R vs other melanocortin receptors.
(§2) Figure 6 Selectivity determination of Pr4LP1 and Ar3LP1 peptides at MC4R vs MC1R and MC3R. […] Data (not normalized) are represented as mean ± SEM from three independent experiments performed in technical triplicate.
(§3) Cells transiently expressing human MC1R, MC3R, or MC4R were incubated for 24 h. Afterward all contents of each well were carefully removed, and cells were then equilibrated in cAMP buffer [1× HBSS, 24 mM HEPES, 0.1% (w/v) BSA, 3.96 mM NaHCO3, 1 mM MgSO4, 1.3 mM CaCl2 dihydrate], supplemented with firefly D-luciferin free acid (0.45 mg/mL) (NanoLight Technology). 90 μL of cAMP buffer was added to all wells, and the 96-well plate was then incubated (28 °C, 1 h). Bioluminescence was measured using the CLARIOstar Plus Plate Reader (BMG LabTech). Prior to injecting the treatment ligands, approximately 5–10 basal readings were performed until stabilization was reached. Peptide ligands (10 μL) were added to the well. Bioluminescence was measured for a total of 30 cycles (1 min per cycle, 1 s integration time, without filter, a fixed gain of 3000, and autofocus).

[2] = tested on: human MC3R; settings: cells transiently expressing human MC3R, up to 10 μM, three independent experiments in technical triplicate
Experimental: as §1, §2, §3

[3] = tested on: human MC4R; settings: cells transiently expressing human MC4R, 1 and 10 μM, three independent experiments in technical triplicate
Experimental: as §1, §2, §3

Row | Structure (SMILES) | cAMP response at MC1R (RLU) [1] | cAMP response at MC3R (RLU) [2] | cAMP response at MC4R (RLU) [3]
1 | CC(C)[C@@H]1NC(=O)[C@H](Cc2ccc(O)cc2)NC(=O)[C@H](Cc2c[nH]c3ccccc23)NC(=O)[C@@H](NC(=O)[C@H](Cc2ccccc2)NC(=O)CN)CSSC[C@@H](C(=O)N[C@@H](CC(N)=O)C(N)=O)NC(=O)[C@H](CCCNC(=N)N)NC(=O)[C@H](CCCNC(=N)N)NC(=O)[C@H](Cc2ccc(O)cc2)NC(=O)[C@@H]2CSSC[C@H](NC1=O)C(=O)N1CCC[C@H]1C(=O)N[C@@H](Cc1c[nH]cn1)C(=O)N[C@H](Cc1ccccc1)C(=O)N[C@@H](Cc1c[nH]cn1)C(=O)N[C@@H](Cc1c[nH]c3ccccc13)C(=O)N2 [Ar3LP1] (H-GFCWYVCPH[dF]HWCYRRCN-NH2; disulfide 3-17, 7-13) | no response | no response | activate the receptor
2 | CC(C)C[C@H](NC(=O)[C@H](CCCNC(=N)N)NC(=O)CNC(=O)CNC(=O)[C@@H](N)CCCNC(=N)N)C(=O)N[C@H]1CSSC[C@@H](C(=O)N[C@H](C(=O)NCC(=O)N[C@@H](CCCNC(=N)N)C(N)=O)C(C)C)NC(=O)[C@H](Cc2ccccc2)NC(=O)[C@@H]2CSSC[C@H](NC(=O)[C@H](Cc3ccc(O)cc3)NC1=O)C(=O)N1CCC[C@H]1C(=O)N[C@@H](Cc1c[nH]cn1)C(=O)N[C@H](Cc1ccccc1)C(=O)N[C@@H](Cc1c[nH]cn1)C(=O)N[C@@H](Cc1c[nH]c3ccccc13)C(=O)N2 [Pr4LP1] (H-RGGRLCYCPH[dF]HWCFCVGR-NH2; disulfide 6-16, 8-14) | no response | no response | activate the receptor
